The values that follow come from US20060074073A1, “Therapeutic combinations comprising poly (ADP-ribose) polymerases inhibitor” (AGOURON PHARMACEUTICALS, INC., priority 2004, published 2006).

Marks after values point to notes of the source that are not given here.

Data set [1] relates to SW620 human colon carcinoma xenograft. As to the kind of experiment: In vivo antitumor efficacy with temozolomide, SW620 xenograft.
Another data set concerns SW620 xenograft. As to the kind of experiment: In vivo antitumor efficacy with irinotecan, SW620 xenograft. Details: species or system mice. The following applies: SW620, once weekly × 3. From the text:
(§1) In no combination study was antagonism observed.

In another data set the test system is LoVo xenografts. As to the kind of experiment: In vivo antitumor efficacy with irinotecan, LoVo xenograft. The following applies: once weekly × 3. The arrangement: species or system mice.
Excerpt: as §1

A short description of data set [2]: Plasma and tumor levels by HPLC/MS in mice bearing SW620 xenograft. Format: in vivo. The method, then: In a parallel study plasma and tumor levels of the compound of formula 1 were measured by an HPLC/MS assay. In addition the degree of inhibition of tumor PARP catalytic activity was assessed using P^32-NAD incorporation into poly-ADP-ribose polymer in homogenates from SW620 tumors of treated animals. […] PARP catalytic activity was inhibited by 50% at 6 h and by 25% at 24 h.

Another data set concerns PARP. Nature of the data set: Tumor PARP catalytic activity, 32P-NAD incorporation in SW620 tumor homogenates of treated animals. Format: in vivo, mice. The method, then: Tumours were excised and were snap frozen in liquid nitrogen and stored at −80° C. until homogenised for analysis. The specimen was defrosted on ice and the wet weight documented. The tissue was homogenised using a Pro 2000 instrument (Pro Scientific Inc, Monroe, Conn., USA) in 3 volumes (i.e. 1 mg plus 3 μl isotonic buffer −7 mM Hepes, 26 mM KCl, 0.1 mM dextran, 0.4 mM EGTA, 0.5 mM MgCl2, 45 mM sucrose, pH 7.8), giving a homogenate with an overall dilution of 1 in 4. The homogenate was kept on ice throughout the process, and homogenisation was performed in 10 second bursts to prevent undue warming of the sample. Prior to assay the samples were further diluted with isotonic buffer where necessary to give a final dilution of 1 in 40 for [^32P]NAD incorporation assay or 1 in 1000 for immunoblot aaasy.
Briefly, cells were suspended in hypotonic buffer (9 mM HEPES pH 7.8, 4.5% (v/v) dextran, 4.5 mM MgCl2 and 5 mM DTT) at 1.5×10^7/ml on ice for 30 minutes then 9 vol of isotonic buffer (40 mM HEPES pH 7.8, 130 mM KCl, 4% (v/v) dextran, 2 mM EGTA, 2.3 mM MgCl2, 225 mM sucrose and 2.5 mM DTT) was added. The reaction was started by adding 300 μl cells to 100 μl 300 μM NAD^+ containing [^32P]-NAD^+ (Amersham, UK), and terminated by the addition of 2 ml ice cold 10% (w/v) TCA+10% (w/v) sodium pyrophosphate. After 30 min on ice the precipitated ^32P—labelled ADP-ribose polymers were filtered on Whatman GC/C filters (Whatman Intemational Ltd, Kent, UK), washed 5 times with 1% (v/v) TCA/1% (v/v) sodium pyrophosphate, dried and counted. PARP inhibitory IC50 values were calculated from computer-fitted curves (GraphPad Software, Inc., San Diego, Calif.).
Tumour homogenates were assayed in a similar manner; however, the homogenisation process introduces sufficient DNA damage to maximally stimulate PARP activity and oligonucleotide was not therefore required. Results were expressed in terms of pmol PAR former per mg tumour.
Preparation of Tumour/Tissue Samples • 1. The frozen tumour samples are weighed. • 2. 3 volumes (i.e. 3 μl solution added for each 1 mg tissue) of isotonic buffer plus DTT is added to the tumour sample. This is stored on ice until and during homogenisation. • 3. The sample is homogenised on ice within a Class II cabinet for 10-second bursts until no detectable macroscopic pieces of tissue are visible. • 4. Sufficient volume of the homogenate is diluted 1 in 10 with isotonic buffer plus DTT to provide an overall dilution of 1 in 40 from the original sample. A final volume of 3 ml is sufficient for triplicate sampling and a subsequent protein assay. • 5. The diluted homogenate is stored on ice and assayed within one hour as below.
PARP Assay of Tumour/Tissue Samples • 1. ^32P 600 μM NAD solution is prepared fresh on the day of experiment as detailed above. Oligonucleotide stock is removed from storage and defrosted. • 2. Water bath is warmed to 26° C. and set to agitate at 70 oscillations per minute.
3. Reaction test tubes are set up as per table A for the QC samples and as per table B for the homogenate.
• 4. Each QC sample is assayed in triplicate, with T0, +oligo and −oligo samples ×3. (Total of 9 tubes per sample, if low cell counts −oligo samples are omitted.) Homogenates are also assayed in triplicate, with T0 and reaction samples ×3. (Total 6 tubes per sample). • 5. 2 ml ice cold 10% TCA+10% NaPPi is added to the T0 tubes prior to addition of homogenate or cells, to correct for non-specific binding of radio-label to the filter. • 6. Reaction test tubes homogenates and QC cells are warmed in the water bath to 26° C. for 7 minutes. • 7. Each preparation is vortexed briefly and the reaction is started by adding 300 μl of this to each reaction tube. • 8. The reaction is stopped exactly 6 minutes after addition of homogenate by adding 2 ml of ice cold 10% TCA+10% NaPPi and vortexing. • 9. The tube is then incubated on ice for at least one hour prior to filtration. • 10. […]

[3] abbreviates: irinotecan 25 mg/kg i.p. + 0.15 mg/kg i.p. (glucuronate salt).
Setting [4] is: irinotecan 25 mg/kg i.p. + 0.5 mg/kg i.p. (glucuronate salt).

`CNCc1ccc(-c2[nH]c3cc(F)cc4c3c2CCNC4=O)cc1.O=P(O)(O)O` [Compound I, phosphate salt of 8-fluoro-2-{4-[(methylamino)methyl]phenyl}-1,3,4,5-tetrahydro-6H-azepino[5,4,3-cd]indol-6-one]: the single-agent antitumor effects entry in data set [1] (Compound I alone) is given as “no single-agent antitumor effects”.

In the case of `CNCc1ccc(-c2[nH]c3cc(F)cc4c3c2CCNC4=O)cc1.O=C[C@H](O)[C@@H](O)[C@H](O)[C@H](O)C(=O)O` [compound of formula 1 glucuronate salt], the “Enhancement (%)” value with SW620 xenograft (irinotecan 25 mg/kg i.p. + 0.05 mg/kg i.p. (glucuronate salt)) is given as 700%; with SW620 xenograft (setting [3]), 1100^f %; with SW620 xenograft (setting [4]) it was 1100^f %; in the data set on LoVo xenografts (irinotecan 25 mg/kg i.p. + 0.0 mg/kg i.p. (glucuronate salt)), 0%; in the data set on LoVo xenografts (setting [3]), 71%; with LoVo xenografts (setting [4]), 86^f %. Moreover, the “Enhancement (%)” value in data set [1] (SW620, 0.1 mg/kg i.p. glucuronate salt + temozolomide 68 mg/kg p.o., QD×5) is recorded as 28^g %; in data set [1] (SW620, 1.0 mg/kg i.p. glucuronate salt + temozolomide 68 mg/kg p.o., QD×5), “≧100^g %”; in data set [1] (SW620, temozolomide 68 mg/kg oral + 0.05 mg/kg i.p. (glucuronate salt), once daily for 5 days) it was 35%; in data set [1] (SW620, temozolomide 68 mg/kg oral + 0.15 mg/kg i.p. (glucuronate salt), once daily for 5 days), 270^f %; in data set [1] (SW620, temozolomide 68 mg/kg oral + 0.5 mg/kg i.p. (glucuronate salt), once daily for 5 days), >60^f, g %. For the same compound, the “Plasma compound of formula 1” value in data set [2] (0.1 mg/kg i.p. as glucuronate salt + temozolomide 68 mg/kg p.o., 0.5 h) is recorded as 12.7 ± 2.3 ng/mL; in data set [2] (0.1 mg/kg i.p. as glucuronate salt + temozolomide 68 mg/kg p.o., 6 h), 0.0 ± 0.0 ng/mL; in data set [2] (0.1 mg/kg i.p. as glucuronate salt + temozolomide 68 mg/kg p.o., 24 h) it was 0.0 ± 0.0 ng/mL; in data set [2] (1.0 mg/kg i.p. as glucuronate salt + temozolomide 68 mg/kg p.o., 0.5 h), 92.0 ± 28.0 ng/mL; in data set [2] (1.0 mg/kg i.p. as glucuronate salt + temozolomide 68 mg/kg p.o., 6 h), 4.7 ± 4.0 ng/mL; in data set [2] (1.0 mg/kg i.p. as glucuronate salt + temozolomide 68 mg/kg p.o., 24 h), 0.0 ± 0.0 ng/mL. The “Plasma compound of formula 1” value in data set [2] (10 mg/kg i.p. as glucuronate salt + temozolomide 68 mg/kg p.o., 0.5 h) is on record as 1532 + 134 ng/mL; in data set [2] (10 mg/kg i.p. as glucuronate salt + temozolomide 68 mg/kg p.o., 6 h) it was 98.0 ± 28.0 ng/mL; in data set [2] (10 mg/kg i.p. as glucuronate salt + temozolomide 68 mg/kg p.o., 24 h) it was 17.8 ± 29.5 ng/mL. Moreover, the “PARP Activity (%)” value came out at 77.6 ± 13.3% in the data set with PARP (0.1 mg/kg i.p. glucuronate salt + temozolomide 68 mg/kg, 0.5 h); 90.2 ± 11.5% in the data set on PARP (0.1 mg/kg i.p. glucuronate salt + temozolomide 68 mg/kg, 6 h); 100.4 ± 7.5% with PARP (0.1 mg/kg i.p. glucuronate salt + temozolomide 68 mg/kg, 24 h); 24.9 ± 16.2% with PARP (1.0 mg/kg i.p. glucuronate salt + temozolomide 68 mg/kg, 0.5 h); 68.6 ± 36.2% in the data set on PARP (1.0 mg/kg i.p. glucuronate salt + temozolomide 68 mg/kg, 6 h); 70.2 ± 19.0% in the data set with PARP (1.0 mg/kg i.p. glucuronate salt + temozolomide 68 mg/kg, 24 h). In addition, the “PARP Activity (%)” value in the data set on PARP (10 mg/kg i.p. glucuronate salt + temozolomide 68 mg/kg, 0.5 h) is 3.4 ± 1.4%; in the data set with PARP (10 mg/kg i.p. glucuronate salt + temozolomide 68 mg/kg, 6 h) it was 4.8 ± 0.87%; with PARP (10 mg/kg i.p. glucuronate salt + temozolomide 68 mg/kg, 24 h) it was 18.3 ± 12.7%. In addition, the body weight loss entry in data set [1] (SW620, temozolomide 68 mg/kg + 0.05 or 0.15 mg/kg glucuronate salt QD×5) is listed as “No body weight loss”. Moreover, the complete remission rate in data set [1] (SW620, temozolomide 68 mg/kg + 0.15 or 0.5 mg/kg glucuronate salt QD×5) is given as 100%.
